In test [1] the target is T1, human full-length recombinant HDAC6 (Homo sapiens (Human), UniProt Q9UBN7). The experiment in a line: HDAC6 enzymatic activity assay (Reaction Biology Corporation, RHKKAc fluorogenic peptide). It counts as biochemical. Particulars: Reaction Biology Corporation protocol, RHKKAc fluorogenic peptide 10 μM; read-out: HDAC6 biochem. The protocol: (§1) Dose response testing of HDAC6 and HDAC 1 were run at Reaction Biology Corporation (RBC). Inhibition of HDAC enzymes was performed using N-terminal GST tagged human full-length recombinant HDAC6 (H88-30G, SignalChem) and C-terminal FLAG His tag human full-length recombinant HDAC1 produced in insect cells (KDA-21-365, RBC). Enzyme reactions were run in 50 mM Tris-HCl, pH8.0, 137 mM NaCl, 2.7 mM KCl, and 1 mM MgCl2 with 1 mg/ml BSA, 1% DMSO freshly added. 2× enzyme was delivered in the wells of the reaction plate except for the “no enzyme” control wells. In the latter, buffer was added. Compounds in 100% DMSO were delved into the enzyme mixture by acoustic technology (Echo550). Plates are spun down and compounds were incubation with the enzyme for 10 min at room temperature. 2× Fluorogenic peptide from p53 residues 379-382 (RHKKAc, 10 μM final concentration) was added in all wells to initiate the reaction, followed by 1 h incubation at 30° C. Developer containing Trichostatin A was added to stop the reaction and generate fluorescent color. A kinetic measurement was carried out for 20 min with 5 min interval on the Envision plate reader (Perkin Elmer, Ex/Em=360/460). End point reading i.e., plateau of the development reaction was used for analysis. Data was reported by RBC as percentage enzyme activity. Percentage inhibition was calculated by subtracting percentage enzyme activity from 100. IC50 values were calculated using GraphPad Prism 9 based on the log(inhibitor) vs. response—Variable slope (four parameters) equation.
T1 sequence (Q9UBN7 whole entry): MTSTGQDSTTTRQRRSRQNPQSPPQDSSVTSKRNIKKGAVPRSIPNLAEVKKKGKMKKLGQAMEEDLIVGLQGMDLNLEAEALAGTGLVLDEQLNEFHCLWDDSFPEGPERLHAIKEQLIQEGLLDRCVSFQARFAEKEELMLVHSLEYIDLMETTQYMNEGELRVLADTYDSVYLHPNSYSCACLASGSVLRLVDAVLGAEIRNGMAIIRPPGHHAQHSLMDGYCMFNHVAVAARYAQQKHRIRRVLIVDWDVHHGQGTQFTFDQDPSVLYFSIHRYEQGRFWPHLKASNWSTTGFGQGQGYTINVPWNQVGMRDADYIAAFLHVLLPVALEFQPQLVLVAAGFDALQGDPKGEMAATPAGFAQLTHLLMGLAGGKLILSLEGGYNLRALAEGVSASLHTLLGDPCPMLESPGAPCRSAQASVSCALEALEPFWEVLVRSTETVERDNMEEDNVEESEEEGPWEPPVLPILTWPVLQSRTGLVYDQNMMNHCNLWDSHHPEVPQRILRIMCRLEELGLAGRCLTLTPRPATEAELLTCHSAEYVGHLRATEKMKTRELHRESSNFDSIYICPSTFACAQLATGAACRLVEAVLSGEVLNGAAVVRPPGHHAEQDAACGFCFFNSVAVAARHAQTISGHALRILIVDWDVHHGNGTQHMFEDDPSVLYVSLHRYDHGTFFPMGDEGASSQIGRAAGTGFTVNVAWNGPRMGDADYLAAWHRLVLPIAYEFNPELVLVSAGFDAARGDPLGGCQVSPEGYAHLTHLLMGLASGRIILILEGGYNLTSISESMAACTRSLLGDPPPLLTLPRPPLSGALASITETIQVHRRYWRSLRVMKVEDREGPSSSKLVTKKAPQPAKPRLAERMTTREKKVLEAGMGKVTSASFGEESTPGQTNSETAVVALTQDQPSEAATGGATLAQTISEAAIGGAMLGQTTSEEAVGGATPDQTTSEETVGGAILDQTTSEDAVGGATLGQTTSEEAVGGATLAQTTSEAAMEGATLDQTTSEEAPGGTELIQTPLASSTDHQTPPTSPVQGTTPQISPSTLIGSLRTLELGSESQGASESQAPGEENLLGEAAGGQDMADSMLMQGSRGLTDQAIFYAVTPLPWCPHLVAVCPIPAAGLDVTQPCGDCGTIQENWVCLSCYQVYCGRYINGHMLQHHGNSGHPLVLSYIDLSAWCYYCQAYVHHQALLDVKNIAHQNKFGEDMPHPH

In test [2] the target is catalytic domain 2 (CD2) of HDAC6 (Homo sapiens (Human), UniProt Q9UBN7). Nature of the test: Cellular target engagement assay - NanoBRET. The test is classed as cell-based. Particulars: NanoLuc-HDAC6(CD2) in HEK293T cells, 2 hours, read-out: IC50 (HDAC6(CD2) interaction).
Chain of catalytic domain 2 (CD2) of HDAC6 (Q9UBN7 482-800): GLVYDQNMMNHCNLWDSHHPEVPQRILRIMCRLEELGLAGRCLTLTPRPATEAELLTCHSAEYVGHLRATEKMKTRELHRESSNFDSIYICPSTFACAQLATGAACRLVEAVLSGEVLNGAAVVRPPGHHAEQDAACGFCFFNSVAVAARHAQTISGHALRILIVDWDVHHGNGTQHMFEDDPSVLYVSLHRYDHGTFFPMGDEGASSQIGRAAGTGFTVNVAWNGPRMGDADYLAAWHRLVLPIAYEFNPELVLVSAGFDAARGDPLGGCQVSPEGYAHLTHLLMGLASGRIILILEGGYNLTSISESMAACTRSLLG
Test [3] concerns the target T2, human full-length recombinant HDAC1 (Homo sapiens (Human), UniProt Q13547). The experiment in a line: HDAC1 enzymatic activity assay (Reaction Biology Corporation, RHKKAc fluorogenic peptide). It counts as biochemical. The following applies: Reaction Biology Corporation protocol, RHKKAc fluorogenic peptide 10 μM; read-out: HDAC1 biochem. The protocol: as §1
Test [4] addresses T2, human full-length recombinant HDAC1. The experiment in a line: HDAC1 enzymatic activity assay (alternative protocol, Ac-Gly-Ala-Lys(Ac)-AMC). The test is classed as biochemical. Particulars: 4 nM enzyme, read-out: HDAC1 biochem. In short, it runs like this: (§2)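 Sf9-expressed enzymes (4 nM HDAC1, 5 nM HDAC6) preincubated 10 min at RT with compound, then 60 min with Ac-Gly-Ala-Lys(Ac)-AMC ([…] HDAC1, 40 µM HDAC6); pH 8.0 Tris buffers, HDAC6 buffer with EDTA and DTT. Trypsin/SAHA developer stop, fluorescence 360/450 nm after 15 min; normalized to DMSO (100%) and 10 μM SAHA (0%).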

Test [5] deals with T1, human full-length recombinant HDAC6. The experiment in a line: HDAC6 enzymatic activity assay (alternative protocol, Ac-Gly-Ala-Lys(Ac)-AMC). It counts as biochemical. Particulars: 5 nM enzyme, read-out: HDAC6 biochem. The method, boiled down:
as §2

Structures are written as SMILES. pIC50: −log10 of the molar value.

T2 sequence (Q13547 whole entry): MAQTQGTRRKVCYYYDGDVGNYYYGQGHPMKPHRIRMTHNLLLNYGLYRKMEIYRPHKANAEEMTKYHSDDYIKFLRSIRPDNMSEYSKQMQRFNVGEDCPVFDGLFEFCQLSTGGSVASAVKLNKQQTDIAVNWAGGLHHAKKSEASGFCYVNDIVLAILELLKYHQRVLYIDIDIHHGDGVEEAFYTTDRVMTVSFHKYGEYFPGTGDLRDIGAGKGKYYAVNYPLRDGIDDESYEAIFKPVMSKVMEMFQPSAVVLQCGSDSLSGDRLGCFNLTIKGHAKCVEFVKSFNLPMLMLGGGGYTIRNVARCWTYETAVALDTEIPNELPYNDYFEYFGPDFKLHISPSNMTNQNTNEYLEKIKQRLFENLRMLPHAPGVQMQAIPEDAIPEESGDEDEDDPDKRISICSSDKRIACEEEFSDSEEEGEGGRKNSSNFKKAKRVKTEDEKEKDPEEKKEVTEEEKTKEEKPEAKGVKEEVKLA

In the case of `Cn1ncc2c(SCC(=O)c3ccc(CNC(=O)C4CC4)s3)ncnc21` [Example 31, N-((5-(2-((1-methyl-1H-pyrazolo[3,4-d]pyrimidin-4-yl)thio)acetyl)thiophen-2-yl)methyl)cyclopropanecarboxamide], the pIC50 is ≥ 7.00 in test [1]; 5.00 to 6.00 in test [2]; < 5.00 in test [3]; < 5.00 in test [4]; ≥ 7.00 in test [5].
`Cc1nc(SCC(=O)c2ccc(CNC(=O)CO)s2)c2cc(Cl)cc(F)c2n1` [Compound 142, N-((5-(2-((6-chloro-8-fluoro-2-methylquinazolin-4-yl)thio)acetyl)thiophen-2-yl)methyl)-2-hydroxyacetamide]: the pIC50 is ≥ 7.00 in test [1], ≥ 7.00 in test [2] and < 5.00 in test [3].
Take `O=C(CO)NCc1ccc(C(=O)CSc2nc(C(F)(F)F)nc3cccnc23)s1` [Compound 152, 2-hydroxy-N-((5-(2-((2-(trifluoromethyl)pyrido[3,2-d]pyrimidin-4-yl)thio)acetyl)thiophen-2-yl)methyl)acetamide]: the figures for the pIC50 in test [1], in test [2] and in test [3] were ≥ 7.00, ≥ 7.00 and < 5.00, respectively.

Values taken from patent US20250051319A1 (AUGUSTINE THERAPEUTICS, priority 2021, published 2025).
